# Key:
# [1] = test system: ABCG2/BCRP; test: Bidirectional transport of Bodipy FL Prazosin (BCRP activity) in EpiAlveolar; format: in vitro ADME, human
# Method: (§1) The activity of ABC transporters was determined by measuring the apical-to-basolateral (AB) and basolateral-to-apical (BA) fluxes of specific substrates. To this aim, cell monolayers were washed twice in HBSS and equilibrated for 30 min in the same solution (pH 7.4, 37 °C). […] After 0, 30, 60, and 120 min, aliquots of the solution were collected from the opposite chamber (receiver chamber) and replaced with the same volume of HBSS. The fluxes were determined by reading fluorescence with an EnSpire® Multimode Plate Reader (Perkin Elmer), or radioactivity with MicroBeta^2 liquid scintillation spectrometer. The apparent permeability coefficient (Papp) was calculated from the data obtained.
# (§2) Efflux ratio (ER) was calculated as the ratio between Papp measured for BA and AB fluxes, while uptake ratio (UR) was the ratio between Papp measured for AB and BA fluxes.
# [2] = test system: ABCG2/BCRP; test: Bidirectional transport of Bodipy FL Prazosin (BCRP activity) in hAELVi; format: in vitro ADME, human
# Method: as §1, §2
# [3] = test system: MDR1; test: Bidirectional transport of Rhodamine123 (MDR1 activity) in EpiAlveolar; format: in vitro ADME, human
# Method: as §1, §2
# [4] = test system: MDR1; test: Bidirectional transport of Rhodamine123 (MDR1 activity) in hAELVi; format: in vitro ADME, human
# Method: as §1, §2
# [5] = test system: EpiAlveolar™
# Method: (§3) The paracellular and transcellular permeability of cell monolayers to solutes was assessed by monitoring the apical-to-basolateral fluxes of ^14C-mannitol and ^3H-propranolol, respectively. In detail, cell monolayers were washed and incubated for 30 min in Hank’s Balanced Salt Solution (HBSS, pH 7.4, 37 °C); HBSS containing ^14C-mannitol (1 µCi/mL, corresponding to 20 µM) or ^3H-propranolol (3 µCi/mL; 10 µM) was then added to the apical side. Aliquots of medium were collected from the basolateral compartment after 0, 30, 60, and 120 min and replaced with fresh HBSS; radioactivity in each sample was measured with a MicroBeta^2 liquid scintillation spectrometer (Perkin Elmer, Italy) and employed to calculate the apparent permeability coefficient (Papp).
# (§4) The apparent permeability coefficient (Papp) of the tracer molecules was calculated according to the equation:Papp = (dQ⁄dt)⁄(A×C0×60) where dQ/dt is the transport rate of the tracer, A is the filter surface area, C0 is the initial concentration of the tracer in the donor chamber, and 60 is the conversion from minutes to seconds.
# [6] = test system: hAELVi
# Method: as §3, §4
# [7] = 10 µM PSC833, 1 µM Rhodamine123, AB and BA
smiles,measurement,setting,value
COc1ccc2c3c([nH]c2c1)[C@H](CC(C)C)N1C(=O)[C@H](CCC(=O)OC(C)(C)C)NC(=O)[C@@H]1C3 [Ko143],inhibition of Bodipy™ FL Prazosin fluxes,[1]; 20 µM Ko143,no inhibition
same,inhibition of Bodipy™ FL Prazosin fluxes,[2]; 20 µM Ko143,no inhibition
C/C=C/C[C@@H](C)C(=O)[C@H]1C(=O)N[C@@H](C(C)C)C(=O)N(C)CC(=O)N(C)[C@@H](CC(C)C)C(=O)N[C@@H](C(C)C)C(=O)N(C)[C@@H](CC(C)C)C(=O)N[C@@H](C)C(=O)N[C@H](C)C(=O)N(C)[C@@H](CC(C)C)C(=O)N(C)[C@@H](CC(C)C)C(=O)N(C)[C@@H](C(C)C)C(=O)N1C [PSC833],effect of inhibitor on Papp of Rhodamine123,[3]; [7],not modified
same,effect of inhibitor on Papp of Rhodamine123,[4]; [7],not modified
COC(=O)c1ccccc1-c1c2ccc(=N)cc-2oc2cc(N)ccc12 [Rhodamine123],"Papp, AB versus BA fluxes",[3]; 1 µM Rhodamine123,comparable for AB and BA fluxes
same,efflux ratio (ER) versus uptake ratio (UR),[3]; 1 µM Rhodamine123,comparable values
same,"Papp, AB versus BA fluxes",[4]; 1 µM Rhodamine123,comparable for AB and BA fluxes
same,efflux ratio (ER) versus uptake ratio (UR),[4]; 1 µM Rhodamine123,comparable values
Cc1nc(-c2ccc(OCC(C)C)c(C#N)c2)sc1C(=O)O [febuxostat],inhibition of Bodipy™ FL Prazosin fluxes,[1]; 50 µM Febuxostat,no inhibition
same,inhibition of Bodipy™ FL Prazosin fluxes,[2]; 50 µM Febuxostat,no inhibition
OC[C@@H](O)[C@@H](O)[C@H](O)[C@H](O)CO [mannitol],"paracellular permeability (Papp), apical-to-basolateral flux",[5],more permeable
same,"paracellular permeability (Papp), apical-to-basolateral flux",[6],slight not significant difference
CC(C)NCC(O)COc1cccc2ccccc12 (centres unmarked) [propranolol],"transcellular permeability (Papp), apical-to-basolateral flux",[5],comparable permeability
same,"transcellular permeability (Papp), apical-to-basolateral flux",[6],comparable permeability

# — paper PMC9496151, “Expression and Function of ABC Transporters in Human Alveolar Epithelial Cells” (Biomolecules, 2022)
